From patent US11007355B2 (TARIS Biomedical LLC, priority 2012, dated 2021)
Where “and” joins values, the source holds several entries; their conditions need not be identical. Equal entries are not always repeated. Entries after “also recorded” stand apart in the source; their conditions may differ. Where two headings read alike, the source gives them in different places.

What was measured:
[1] = Platinum content of blood, urine and terminal tissues by ICP-MS after bladder perfusion or IV bolus (Example 1); format: in vivo, rat
male Sprague Dawley rats [2] = experiment: Bladder tolerability in rats: clinical observations during perfusion and tissue observations at necropsy (Example 1); format: in vivo, rat
Experimental: For each drug, each test group included three male rats. The perfusate drug concentration was set to 0.3 mg/mL and the perfusion rate used was 300 μL/hour over the test periods.
Perfusion solutions were prepared by dissolving each drug substance into an appropriate volume of saline. The finals doses administered are summarized below.

[3] = Oxaliplatin tissue permeability: platinum in blood, urine and tissues after 72-hour bladder perfusion (Example 2)
Experimental: (§1) Blood, urine, and tissue samples were collected and analyzed for drug content.
(§2) The perfusate formulation concentration was 0.308 mg/mL. Dose (mg/kg) was calculated as (Dose administered (g) x formulation concentration (mg/mL))/Animal Wt. (kg). The drug solutions were dosed over a 72-hour period into the non-fasted animal's bladder by intra-urinary bladder cannula using an infusion pump.
(§3) Whole blood samples were taken via tailnick or jugular vein cannula at the following time points following the start of perfusion: 0, 4, 8, 24, and 48 hours. Urine was collected pre-dose and for 0-24, 24-48, and 48-72-hour periods post dose.
(§4) Following the 72-hour infusion period the animals were sacrificed, terminal blood samples were taken via the abdominal aorta, and bladder, prostate, ureter, and kidney tissues were collected, weighed, and visually inspected for evidence of tolerability/reaction from exposure to the drug.

male Sprague Dawley rats [4] = conditions: 72-hour bladder perfusion
Experimental: as §1, §2, §3, §4

[5] = Group 1: 24-hr bladder perfusion, 0.3 mg/mL
[6] = Group 2: 72-hr bladder perfusion, 0.3 mg/mL
[7] = Group 4: IV bolus with saline perfusion via cannula
[8] = 0.308 mg/mL, individual animals 47, 48, 49

In the case of `N.N.O=C([O-])C1(C(=O)[O-])CCC1.[Pt+2]` [carboplatin], the “Blood profile (platinum)” value ([1]; IV bolus, FIG. 8) is reported as “significant peak systemic platinum exposure followed by a sharp decay”, the “Amount in the IV bolus terminal phase as compared with cisplatin” value ([1]; IV bolus, blood) is reported as “one quarter less” and the “Therapeutic tissue platinum concentrations by intravesical perfusion” value ([1]; bladder perfusion 0.3 mg/mL) is reported as “does not achieve therapeutic tissue platinum concentrations”. For the same molecule, the “Observed plasma levels (blood profile, platinum)” value ([1]; bladder perfusion groups, FIG. 8) was “near the limit of the assay detection (twice the limits of detection) to below the quantitation limit”, the “Tissue levels (terminal platinum concentrations) compared with cisplatin” value ([1]; bladder perfusion, FIG. 9) was “consistently less than those observed following cisplatin bladder perfusion” and the “Bladder tissue concentrations relative to IC50” value ([1]; bladder perfusion, terminal bladder tissue) was “below the IC50 of carboplatin”. For the same molecule, the “Tissue Observations at Necropsy: bladder lumen erythemic discoloration (grade)” value (“Tissue Observations at Necropsy … (grade)” below) (male Sprague Dawley rats [2]; [5]) was “Bladder lumen: slight to mild”, the “Tissue Observations at Necropsy: erythemic discoloration, share of lumen” value (shortened to “Tissue Observations at Necropsy … of lumen”) (male Sprague Dawley rats [2]; [5]) was 10-30 % of lumen and the “Tissue Observations at Necropsy: evidence of tissue edema/thickened bladder walls” value (male Sprague Dawley rats [2]; [5]) was “no”. For the same molecule, the “Clinical Observations of note during Perfusion” value (“Clinical Observations” below) (male Sprague Dawley rats [2]; Group 1: 24-hr perfusion via cannula to bladder dome, 0.3 mg/mL, 300 μL/hour, 3 male rats) was “Normal”, the “Tissue Observations at Necropsy … (grade)” value (male Sprague Dawley rats [2]; [6]) was “Bladder lumen: slight to mild” and the “Tissue Observations at Necropsy … of lumen” value (male Sprague Dawley rats [2]; [6]) was 10-30 % of lumen. The “Tissue Observations at Necropsy: evidence of tissue edema/thickened bladder walls” value (male Sprague Dawley rats [2]; [6]) was “no”, the “Clinical Observations” value (male Sprague Dawley rats [2]; Group 2: 72-hr perfusion via cannula to bladder dome, 0.3 mg/mL, 300 μL/hour, 3 male rats) was “Normal” and the “Tissue Observations at Necropsy … (grade)” value (male Sprague Dawley rats [2]; [7]) was “Bladder lumen: slight generalized”. For the same molecule, the “Tissue Observations at Necropsy … of lumen” value (male Sprague Dawley rats [2]; [7]) was “erythemic discoloration, 5-10% of lumen”, the “Clinical Observations” value (male Sprague Dawley rats [2]; Group 4: IV bolus with saline perfusion via cannula, 3 male rats) was “Red tinted urine” and the “Appearance of animals during perfusion period” value (male Sprague Dawley rats [2]; all dosed animals (Groups 1, 2, 4)) was “all animals appeared normal”. The “Bladder tolerability and tissue permeability criteria (overall)” value (male Sprague Dawley rats [2]; bladder perfusion, Example 1) was “meet only one or other of these criteria”.
In the case of `N.N.[Cl][Pt][Cl]` [cisplatin], the “Bladder platinum concentrations, 72 hr perfusions compared to 24 hr perfusions” value ([1]; rat, in vivo) is reported as “Significantly higher and more variable”, the “Blood profile (platinum, whole blood)” value ([1]; rat, in vivo) is reported as “rising blood levels” and the “Clinical Observations” value (male Sprague Dawley rats [2]; rat, in vivo, iv) is reported as “Normal”. The “Tissue Observations at Necropsy (overall)” value (male Sprague Dawley rats [2]; rat, in vivo, iv) was “No observations”.
For `O=C1[O][Pt]2([NH][C@@H]3CCCC[C@H]3[NH]2)[O]C1=O` [oxaliplatin], the “Blood and kidney platinum concentrations, in contrast to cisplatin” value ([3]; 72-hour bladder perfusion) was “Comparatively low”, the “Bladder platinum concentrations compared to cisplatin and carboplatin” value ([3]; 72-hour bladder perfusion, FIGS. 12A-12B) was “significant platinum bladder concentrations” and the “Platinum concentration in the kidney or prostate” value ([3]; 72-hour bladder perfusion, terminal tissues) was “No appreciable platinum concentration”. The “Blood concentrations (blood profile) compared with cisplatin and carboplatin” value ([3]; 72 hour bladder perfusion, FIG. 10) was “fell between cisplatin and carboplatin”, the “Appearance of animals throughout the study” value (male Sprague Dawley rats [4]; 0.308 mg/mL) was “All animals appeared normal” and the “Observations at necropsy: erythemia (animal 48: erythemia and edema) on inside wall of bladder associated with the bladder cannula” value (male Sprague Dawley rats [4]; 0.308 mg/mL, individual animals 47, 48) was “bladder associated with the bladder cannula mild; also recorded: bladder associated with the bladder cannula moderate”. For the same molecule, the “Observations at necropsy: erythemia of bladder surface (grade)” value (male Sprague Dawley rats [4]; [8]) was “Slight erythemia; also recorded: Slight erythemic”, the “Observations at necropsy: erythemia, share of surface” value (male Sprague Dawley rats [4]; [8]) was 20 % of surface (2×) and < 5 % of surface and the “Bladder tolerability and tissue permeability criteria (overall)” value (male Sprague Dawley rats [4]; Example 2) was “both bladder tolerability and tissue permeability”.
